Data as given in US6951843B2, “Peptide derivatives and their pharmaceutically acceptable salts, thereof, processes for preparation of both and use thereof” (priority 2000, dated 2005).
Where two headings read alike, the source gives them in different places.

Columns and labels:
Lys-gingipain (KGP) = Lys-gingipain (KGP) (Porphyromonas gingivalis, UniProt B2RLK2)
Protocol: Measurement of Inhibitory Activity Against KGP
The inhibitory activity against Lys-gingipain (KGP) was measured by the method described in Journal Biochemistry, Vol. 123, 305-312 (1998), using Z-His-Glu-Lys-MCA as a substrate. Specifically, the measurement was carried out in the following manner: 100 μl of 50 mM L-cystein, 200 μl of a 0.1 M sodium phosphate buffer solution (pH 7.5), 20 μl of 12.3 nM KGP solution containing 0.05% “Brij35” (a tradename of Aldrich, polyoxyethylene(23) lauryl ether), 80 μl of distilled water and 100 μl of a dimethyl sulfoxide solution of a compound according to the invention were mixed together, and preincubated at 37° C. for 5 minutes. Thereafter, 500 μl of a 0.1% dimethyl sulfoxide solution containing 20 μM Z-His-Glu-Lys-MCA was added, followed by incubation at 40° C. for 10 minutes. Then, an acetic acid buffer solution (pH 5.0) containing 10 mM iodoacetamide was added to stop the enzyme reaction, and the fluorescence intensity (F) at 460 nm excited at 380 nm was measured. […] The enzyme inhibitory activity (%) was calculated by the following equation. Enzyme inhibitory activity (%)=[1−(F/F0)]×100

Arg-gingipain (RGP) = test: Inhibitory activity against Arg-gingipain (RGP), substrate Z-Phe-Arg-MCA, for comparison; assay type: biochemical, Porphyromonas gingivalis; conditions: compound concentration 10^−6 mol/l
Protocol: Enzyme inhibitory activity (%)=[1−(F/F0)]×100
The inhibitory activity against Arg-gingipain (hereinafter referred to as “RGP”) was measured for comparison in a manner similar to the above, by the process described in Journal Biological Chemistry, Vol. 269, 21371-21378 (1994) using Z-Phe-Arg-MCA as a substrate.

[1] = compound concentration 10^−6 mol/l
[2] = compound concentration 10^−9 mol/l

Structure (SMILES)	melting point [°C]	Enzyme inhibitory activity (%) KGP (Lys-gingipain (KGP); [1]) [%]	Enzyme inhibitory activity (%) KGP (Lys-gingipain (KGP); [2]) [%]	Enzyme inhibitory activity (%) RGP (Arg-gingipain (RGP)) [%]
CN(C)C(=O)[C@H](CCC(=O)OC(C)(C)C)NC(=O)C(=O)[C@H](CCCCNC(=O)OC(C)(C)C)NC(=O)[C@H](CCC(=O)OC(C)(C)C)NC(=O)OCc1ccccc1	127 to 130	–	–	–
Cl.NCCCC[C@H](NC(=O)[C@H](CCC(=O)O)NC(=O)OCc1ccccc1)C(=O)C(=O)NCc1ccccc1 [Example 41]	–	99.7	81.8	4.0
CCCNC(=O)C(=O)[C@H](CCCCN)NC(=O)[C@H](CCC(=O)O)NC(=O)OCc1ccccc1.Cl [Example 39]	–	99.6	71.9	0.0
CNC(=O)CC[C@H](NC(=O)OCc1ccccc1)C(=O)N[C@@H](CCCCNC(=O)OC(C)(C)C)C(=O)C(=O)NCc1ccccc1	189 to 192	–	–	–
CC(C)C[C@H](NC(=O)C(=O)[C@H](CCCCNC(=O)OC(C)(C)C)NC(=O)[C@H](CCC(=O)OC(C)(C)C)NC(=O)OCc1ccccc1)C(=O)N(C)C	119 to 122	–	–	–
CN(C)C(=O)[C@H](CCC(=O)O)NC(=O)C(=O)[C@H](CCCCN)NC(=O)[C@H](CCC(=O)O)NC(=O)OCc1ccccc1.Cl [Example 36]	–	98.6	38.4	0.0
CN(C)C(=O)[C@H](CCCCNC(=O)OC(C)(C)C)NC(=O)C(=O)[C@H](CCCCNC(=O)OC(C)(C)C)NC(=O)[C@H](CCC(=O)OC(C)(C)C)NC(=O)OCc1ccccc1	152 to 155	–	–	–
CN(C)C(=O)[C@H](CC(N)=O)NC(=O)C(=O)[C@H](CCCCN)NC(=O)[C@H](CCC(=O)O)NC(=O)OCc1ccccc1.Cl [Example 37]	–	99.9	59.6	8.5
CC(C)C[C@H](NC(=O)C(=O)[C@H](CCCCN)NC(=O)[C@H](CCC(=O)O)NC(=O)OCc1ccccc1)C(=O)N(C)C.Cl [Example 35]	–	99.9	50.6	3.7
Cl.Cl.NCCCC[C@H](NC(=O)[C@H](CCC(=O)N1CCNCC1)NC(=O)OCc1ccccc1)C(=O)C(=O)NCc1ccccc1 [Example 47]	–	100.0	98.5	6.4
Cl.NCCCC[C@H](NC(=O)[C@H](CCC(=O)O)NC(=O)OCc1ccccc1)C(=O)C(=O)Nc1ccccc1 [Example 40]	–	99.6	71.3	0.0
CN(C)C(=O)CC[C@H](NC(=O)OCc1ccccc1)C(=O)N[C@@H](CCCCN)C(=O)C(=O)NCc1ccccc1.Cl [Example 45]	–	100.0	93.7	0.0
Cl.Cl.NCCCC[C@H](NC(=O)[C@H](CCC(=O)NCCN)NC(=O)OCc1ccccc1)C(=O)C(=O)NCc1ccccc1 [Example 46]	–	99.9	99.9	0.5
CN(NC(=O)CC[C@H](NC(=O)OCc1ccccc1)C(=O)N[C@@H](CCCCNC(=O)OC(C)(C)C)C(=O)C(=O)NCc1ccccc1)c1ccccc1	147 to 150	–	–	–
CN(NC(=O)CC[C@H](NC(=O)OCc1ccccc1)C(=O)N[C@@H](CCCCN)C(=O)C(=O)NCc1ccccc1)c1ccccc1.Cl.Cl [Example 49]	–	100.0	99.0	0.0
Cl.NCCCC[C@H](NC(=O)[C@H](CCC(=O)O)NC(=O)OCc1ccccc1)C(=O)C(=O)NCCc1ccccc1 [Example 42]	–	98.0	67.0	7.7
CN(C)NC(=O)CC[C@H](NC(=O)OCc1ccccc1)C(=O)N[C@@H](CCCCN)C(=O)C(=O)NCc1ccccc1.Cl.Cl [Example 48]	–	100.0	98.2	4.1
Cl.NCCCC[C@H](NC(=O)[C@H](CCC(N)=O)NC(=O)OCc1ccccc1)C(=O)C(=O)NCc1ccccc1 [Example 43]	–	100.0	93.8	9.0
CN(C)C(=O)[C@H](Cc1ccccc1)NC(=O)C(=O)[C@H](CCCCN)NC(=O)[C@H](CCC(=O)O)NC(=O)OCc1ccccc1.Cl [Example 34]	–	99.7	40.6	5.7
CNC(=O)CC[C@H](NC(=O)OCc1ccccc1)C(=O)N[C@@H](CCCCN)C(=O)C(=O)NCc1ccccc1.Cl [Example 44]	–	100.0	97.3	1.9
CN(C)C(=O)[C@H](CC(N)=O)NC(=O)C(=O)[C@H](CCCCNC(=O)OC(C)(C)C)NC(=O)[C@H](CCC(=O)OC(C)(C)C)NC(=O)OCc1ccccc1	122 to 124	–	–	–
CC(C)(C)OC(=O)NCCCC[C@H](NC(=O)[C@H](CCC(N)=O)NC(=O)OCc1ccccc1)C(=O)C(=O)NCc1ccccc1	193 to 195	–	–	–

More lines, main results first:

melting point [°C]	Structure (SMILES)	Enzyme inhibitory activity (%) KGP (Lys-gingipain (KGP); [1]) [%]	Enzyme inhibitory activity (%) KGP (Lys-gingipain (KGP); [2]) [%]	Enzyme inhibitory activity (%) RGP (Arg-gingipain (RGP)) [%]
146 to 147	CC(C)(C)OC(=O)CC[C@H](NC(=O)OCc1ccccc1)C(=O)N[C@@H](CCCCNC(=O)OC(C)(C)C)C(O)C(=O)Nc1ccccc1 (single isomer, unassigned)	–	–	–
170 to 172	CC(C)(C)OC(=O)NCCCC[C@H](NC(=O)[C@H](CCC(=O)NCCNC(=O)OC(C)(C)C)NC(=O)OCc1ccccc1)C(O)C(=O)NCc1ccccc1 (stereo partly drawn)	–	–	–
132 to 134	CN(C)C(=O)[C@H](Cc1ccccc1)NC(=O)C(O)[C@H](CCCCNC(=O)OC(C)(C)C)NC(=O)[C@H](CCC(=O)OC(C)(C)C)NC(=O)OCc1ccccc1 (single isomer, unassigned)	–	–	–
73 to 75	CCCNC(=O)C(O)[C@H](CCCCNC(=O)OC(C)(C)C)NC(=O)[C@H](CCC(=O)OC(C)(C)C)NC(=O)OCc1ccccc1 (stereo partly drawn)	–	–	–
82 to 85	CC(C)(C)OC(=O)CC[C@H](NC(=O)OCc1ccccc1)C(=O)N[C@@H](CCCCNC(=O)OC(C)(C)C)C(O)C(=O)NCCc1ccccc1 (stereo partly drawn)	–	–	–
130 to 132	CC(C)(C)OC(=O)CC[C@H](NC(=O)OCc1ccccc1)C(=O)N[C@@H](CCCCNC(=O)OC(C)(C)C)C(=O)C(=O)NCc1ccccc1	–	–	–
101 to 103	COC(=O)C(O)[C@H](CCCCNC(=O)OC(C)(C)C)NC(=O)[C@H](CCC(=O)OC(C)(C)C)NC(=O)OCc1ccccc1 (stereo partly drawn)	–	–	–
138 to 141	CC(C)(C)OC(=O)NCCCC[C@H](NC(=O)[C@H](CCC(N)=O)NC(=O)OCc1ccccc1)C(O)C(=O)NCc1ccccc1 (stereo partly drawn)	–	–	–
88 to 91	CN(C)C(=O)[C@H](CC(N)=O)NC(=O)C(O)[C@H](CCCCNC(=O)OC(C)(C)C)NC(=O)[C@H](CCC(=O)OC(C)(C)C)NC(=O)OCc1ccccc1 (stereo partly drawn)	–	–	–
131 to 133	CCCNC(=O)C(=O)[C@H](CCCCNC(=O)OC(C)(C)C)NC(=O)[C@H](CCC(=O)OC(C)(C)C)NC(=O)OCc1ccccc1	–	–	–
48 to 50	CC(C)(C)OC(=O)CC[C@H](NC(=O)OCc1ccccc1)C(=O)N[C@@H](CCCCNC(=O)OC(C)(C)C)C(O)C(=O)O (stereo partly drawn)	–	–	–
148 to 150	CC(C)(C)OC(=O)CC[C@H](NC(=O)OCc1ccccc1)C(=O)N[C@@H](CCCCNC(=O)OC(C)(C)C)C(=O)C(=O)NCCc1ccccc1	–	–	–
102 to 104	CN(C)C(=O)[C@H](Cc1ccccc1)NC(=O)C(=O)[C@H](CCCCNC(=O)OC(C)(C)C)NC(=O)[C@H](CCC(=O)OC(C)(C)C)NC(=O)OCc1ccccc1	–	–	–
170 to 173	CN(NC(=O)CC[C@H](NC(=O)OCc1ccccc1)C(=O)N[C@@H](CCCCNC(=O)OC(C)(C)C)C(O)C(=O)NCc1ccccc1)c1ccccc1 (stereo partly drawn)	–	–	–
147 to 149	CNC(=O)CC[C@H](NC(=O)OCc1ccccc1)C(=O)N[C@@H](CCCCNC(=O)OC(C)(C)C)C(O)C(=O)NCc1ccccc1 (stereo partly drawn)	–	–	–
157 to 159	CC(C)(C)OC(=O)NCCCC[C@H](NC(=O)[C@H](CCC(=O)NCCNC(=O)OC(C)(C)C)NC(=O)OCc1ccccc1)C(=O)C(=O)NCc1ccccc1	–	–	–
123 to 125	CN(C)NC(=O)CC[C@H](NC(=O)OCc1ccccc1)C(=O)N[C@@H](CCCCNC(=O)OC(C)(C)C)C(O)C(=O)NCc1ccccc1 (stereo partly drawn)	–	–	–
